The source made the active and inactive calls. The calls are words filed in the database; no cut-off is given here.
Key:
[1] = system: 4T1; test: Anticancer activity against mouse 4T1 cells assessed as inhibition of cell growth incubated for 24 hrs by CCK-8 assay; format: functional, cell-based; settings: 4T1, 24 h
[2] = system: 4T1; test: Induction of apoptosis in mouse 4T1 cells assessed as apoptotic rate at 40 micromol/L incubated for 24 hrs by Annexin-V/PI staining based flow cytometry relative to control; format: functional; settings: dose 40 µmol/L, at 40 µM
[3] = system: 4T1; test: Induction of mitochondrial membrane potential loss in mouse 4T1 cells assessed as green fluorescence at 10 uM incubated for 24 hrs by JC-1 staining based flow cytometric analysis (reference value: 11.7%); format: cell-based
[4] = Half life in Sprague-Dawley rat plasma at 10 mg/kg, po measured upto 24 hrs by LC-MS/MS analysis; format: ADME, organism-based
[5] = Toxicity in BALB/c mouse implanted with mouse 4T1 cells assessed as body weight loss at 0.2 mmol/Kg, po administered once daily for 14 days; format: organism-based; settings: in vivo, 336 h, time 14 day
[6] = Toxicity in BALB/c mouse implanted with mouse 4T1 cells assessed as effect on BUN level at 0.2 mmol/Kg, po administered once every day for 14 days by routine blood analysis; format: organism-based; settings: in vivo, 336 h, time 14 day
[7] = Toxicity in BALB/c mouse implanted with mouse 4T1 cells assessed as effect on CREA level at 0.2 mmol/Kg, po administered once every day for 14 days by routine blood analysis; format: organism-based; settings: in vivo, 336 h, time 14 day
[8] = Toxicity in BALB/c mouse implanted with mouse 4T1 cells assessed as change in heart histopathology at 0.2 mmol/Kg, po administered once every day for 14 days; format: organism-based; settings: in vivo, 336 h, time 14 day
[9] = system: 4T1; test: Induction of apoptosis in mouse 4T1 cells assessed as decrease in Bcl2 expression at 10 uM incubated for 24 hrs by Western blot analysis; format: functional, cell-based
[10] = Prodrug conversion in Sprague-Dawley rat plasma assessed as Stachydrine release at 10 mg/kg, iv measured after 24 hrs by LC-MS/MS analysis; format: ADME, organism-based; settings: in vivo
[11] = Tmax in Sprague-Dawley rat plasma at 10 mg/kg, po measured upto 24 hrs by LC-MS/MS analysis; format: ADME, organism-based
[12] = system: 4T1; test: Antitumor activity against mouse 4T1 cells implanted in BALB/c mouse assessed as change in tumor weight at 0.2 mmol/Kg, po administered once every day for 14 days; format: functional, organism-based; settings: time 14.0 day
[13] = Toxicity in BALB/c mouse implanted with mouse 4T1 cells assessed as increase in mean platelet volume at 0.2 mmol/Kg, po administered once every day for 14 days by routine blood analysis; format: organism-based; settings: in vivo, 336 h, time 14 day
[14] = Toxicity in BALB/c mouse implanted with mouse 4T1 cells assessed as increase in splenic red pulp at 0.2 mmol/Kg, po administered once every day for 14 days; format: organism-based; settings: in vivo, 336 h, time 14 day
[15] = system: 4T1; test: Antitumor activity against mouse 4T1 cells implanted in BALB/c mouse assessed as tumor cell necrosis at 0.2 mmol/Kg, po administered once every day for 14 days by histological staining based analysis; format: functional, organism-based; settings: time 14.0 day

Question: Which results are given for `CCCCCCCCCCCCOC(=O)C1CCC[N+]1(C)C.[Cl-]` (stereo not given)?
Answer: IC50 [1]: 24.7 µM; Activity [2]: 71.3%; Activity [3]: 56.8%; half-life [4]: 7.62 h; Activity [5]: Toxic; Activity [6]: Non-Toxic; Activity [7]: Non-Toxic; Activity [8]: Non-Toxic; Activity [9]: Active; Drug metabolism [10]: Metabolite_Detected; Tmax [11]: 2 h; Activity [12]: Active; Activity [13]: Non-Toxic; Activity [14]: Toxic; Activity [15]: Active

— ChEMBL document CHEMBL5625202, “Synthesis, characterization and anti-breast cancer activities of stachydrine derivatives” (Eur J Med Chem, 2023)
